Experimental data: US9260429B2, “Pyrido[3,4-B]indoles and methods of use” (Medivation Technologies, Inc., priority 2008, dated 2016)

What was measured:
[1] = tested on: brain cells (neurons); settings: preclinical models of Alzheimer's disease and Huntington's disease; cited from earlier work
[2] = tested on: cells treated with ionomycin; settings: after treatment with the cell toxin ionomycin; dose dependent; cited from earlier work
[3] = tested on: neuronal cells; settings: cited from earlier work
[4] = biological target: T1, human recombinant histamine H1 receptor (Homo sapiens, UniProt P35367); assay: Histamine H1 radioligand binding ([3H]Pyrilamine); settings: 1 μM; read-out: Binding data (Percentage Inhibition) Histamine Binding (1 μM) H1
T1 construct: expressed in transfected cells; host or cells: CHO cells
Protocol: To evaluate in radioligand binding assays the activity of compounds of the invention, human recombinant histamine H1 receptor expressed in Chinese hamster ovary (CHO) cells (De Backer, M. D. et al., Biochem. Biophys. Res. Comm. 197(3):1601, 1993) in a modified Tris-HCl buffer (50 mM Tris-HCl, pH 7.4, 2 mM MgCl2, 100 mM NaCl, 250 mM Sucrose) was used. Compounds of the invention were incubated with 1.2 nM [^3H]Pyrilamine for 180 minutes at 25° C. Non-specific binding was estimated in the presence of 1 μM pyrilamine. Receptor proteins were filtered and washed, the filters were then counted to determine [^3H]Pyrilamine specifically bound. […] Biochemical assay results are presented as the percent inhibition of specific binding in Table 3.

[5] = biological target: T2, human recombinant histamine H2 receptor (Homo sapiens, UniProt P25021); assay: Histamine H2 radioligand binding ([125I]Aminopotentidine); settings: 1 μM; inhibition of specific [125I]Aminopotentidine binding; read-out: Binding data (Percentage Inhibition) Histamine Binding (1 μM) H2
T2 construct: expressed in transfected cells; host or cells: CHO-K1 cells
Protocol: To evaluate in radioligand binding assays the activity of compounds of the invention, human recombinant histamine H2 receptor expressed in Chinese hamster ovary (CHO) K1 cells (Ruat, M., Proc. Natl. Acad. Sci. USA. 87(5):1658, 1990) in a 50 mM Phosphate buffer, pH 7.4 was used. Compounds of the invention were incubated with 0.1 nM [^125I]Aminopotentidine for 120 minutes at 25° C. Non-specific binding was estimated in the presence of 3 μM Tiotidine. Receptor proteins were filtered and washed, the filters were then counted to determine [^125I]Aminopotentidine specifically bound. Compounds were screened at 1 μM or lower, using 1% DMSO as vehicle. Biochemical assay results are presented as the percent inhibition of specific binding in Table 3.

[6] = biological target: T3, human recombinant dopamine D2L receptor (Homo sapiens, UniProt P14416); assay: Dopamine D2L radioligand binding ([3H]Spiperone); settings: 2 h, 1 μM ligand conc.; read-out: Percent Inhibition of ligand binding Dopamine (1 μM ligand conc.) D2L
T3 construct: expressed in transfected cells; host or cells: CHO cells
Protocol: To evaluate in radioligand binding assays the activity of compounds of the invention, human recombinant dopamine D2L receptor expressed in Chinese hamster ovary (CHO) cells (Grandy, D. K. et al. Proc. Natl. Acad. Sci. USA. 86:9762, 1989; Hayes, G. et al., Mol. Endocrinol. 6:920, 1992) in a modified Tris-HCl buffer (50 mM Tris-HCl, pH 7.4, 1.4 mM Ascorbic Acid, 0.001% BSA, 150 mM NaCl) was used. Compounds of the invention were incubated with 0.16 nM [^3H]Spiperone for 120 minutes at 25° C. Non-specific binding was estimated in the presence of […] Haloperidol. Receptor proteins were filtered and washed, the filters were then counted to determine [^3H]Spiperone specifically bound. Compounds were screened at 1 μM or lower, using 1% DMSO as vehicle. Biochemical assay results are presented as the percent inhibition of specific binding in Table 4.

[7] = biological target: T4, human recombinant serotonin (5-Hydroxytryptamine) 5-HT2A receptor (Homo sapiens, UniProt P28223); assay: Serotonin 5-HT2A radioligand binding ([3H]Ketanserin); settings: 1 h; read-out: Percent Inhibition of ligand binding Serotonin (1 μM ligand concentration) 5-HT2A
T4 construct: expressed in transfected cells; host or cells: CHO-K1 cells
Protocol: To evaluate in radioligand binding assays the activity of compounds of the invention, human recombinant serotonin (5-Hydroxytryptamine) 5-HT2A receptor expressed in Chinese hamster ovary (CHO-K1) cells (Bonhaus, D. W. et al. Br. J. Pharmacol. 115:622, 1995; Saucier, C. and Albert, P. R., J. Neurochem. 68:1998, 1997) in a 50 mM Tris-HCl buffer, pH 7.4, was used. Compounds of the invention were incubated with 0.5 nM [^3H]Ketanserin for 60 minutes at 25° C. Non-specific binding was estimated in the presence of 1 μM Mianserin. Receptor proteins were filtered and washed, the filters were then counted to determine [^3H]Ketanserin specifically bound. Compounds were screened at 1 μM or lower, using 1% DMSO as vehicle. Biochemical assay results are presented as the percent inhibition of specific binding in Table 5.

[8] = biological target: T5, human recombinant serotonin (5-Hydroxytryptamine) 5-HT2C receptor (Homo sapiens, UniProt P28335); assay: Serotonin 5-HT2C radioligand binding ([3H]Mesulergine); settings: 1 h; read-out: Percent Inhibition of ligand binding Serotonin (1 μM ligand concentration) 5-HT2C
T5 construct: expressed in transfected cells; host or cells: CHO-K1 cells
T5 sequence (P28335 33-458): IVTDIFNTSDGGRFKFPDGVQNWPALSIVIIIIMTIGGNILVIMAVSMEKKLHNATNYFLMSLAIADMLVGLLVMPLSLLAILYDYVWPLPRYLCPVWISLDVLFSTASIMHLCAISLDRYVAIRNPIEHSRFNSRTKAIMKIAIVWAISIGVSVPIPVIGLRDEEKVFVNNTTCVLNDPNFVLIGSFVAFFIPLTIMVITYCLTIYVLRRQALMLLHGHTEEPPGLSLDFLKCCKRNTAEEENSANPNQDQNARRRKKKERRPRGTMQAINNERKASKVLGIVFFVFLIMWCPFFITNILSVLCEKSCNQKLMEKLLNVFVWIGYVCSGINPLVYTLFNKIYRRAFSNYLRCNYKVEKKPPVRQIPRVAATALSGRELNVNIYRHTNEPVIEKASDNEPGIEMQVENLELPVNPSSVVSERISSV
Protocol: Compounds of the invention were incubated with 1 nM [^3H]Mesulergine for 60 minutes at 25° C. Non-specific binding was estimated in the presence of 1 μM Mianserin. Receptor proteins were filtered and washed, the filters were then counted to determine [^3H]Mesulergine specifically bound. […] Biochemical assay results are presented as the percent inhibition of specific binding in Table 5.

[9] = biological target: T6, human recombinant serotonin (5-Hydroxytryptamine) 5-HT6 receptor (Homo sapiens, UniProt P50406); assay: Serotonin 5-HT6 radioligand binding ([3H]LSD); settings: 2 h; read-out: Percent Inhibition of ligand binding Serotonin (1 μM ligand concentration) 5-HT6
T6 construct: expressed in transfected cells; host or cells: human HeLa cells
Protocol: To evaluate in radioligand binding assays the activity of compounds of the invention, human recombinant serotonin (5-Hydroxytryptamine) 5-HT6 receptor expressed in human HeLa cells (Monsma, F. J. Jr. et al., Mol. Pharmacol. 43:320, 1993) in a modified Tris-HCl buffer (50 mM Tris-HCl, pH 7.4, 150 mM NaCl, 2 mM Ascorbic Acid, 0.001% BSA) was used. Compounds of the invention were incubated with 1.5 nM [3H]Lysergic acid diethylamide (LSD) for 120 minutes at 37° C. Non-specific binding was estimated in the presence of […] Serotonin (5-HT). Receptor proteins were filtered and washed, the filters were then counted to determine [3H]LSD specifically bound. Compounds were screened at 1 μM or lower, using 1% DMSO as vehicle. Biochemical assay results are presented as the percent inhibition of specific binding in Table 5.

[10] = biological target: T7, human recombinant serotonin (5-Hydroxytryptamine) 5-HT7 receptor (Homo sapiens, UniProt P34969); assay: Serotonin 5-HT7 radioligand binding ([3H]LSD); settings: 2 h; read-out: Percent Inhibition of ligand binding Serotonin (1 μM ligand concentration) 5-HT7
T7 construct: expressed in transfected cells; host or cells: CHO cells
Protocol: To evaluate in radioligand binding assays the activity of compounds of the invention, human recombinant serotonin (5-Hydroxytryptamine) 5-HT7 receptor expressed in Chinese hamster ovary (CHO) cells (Roth, B. L. et al., J. Pharmacol. Exp. Ther. 268:1403, 1994; Shen, Y. et al., J. Biol. Chem. 268:18200, 1993) in a modified Tris-HCl buffer (50 mM Tris-HCl, pH 7.4, 10 mM MgCl2, 0.5 mM EDTA) was used. Compounds of invention were incubated with 5.5 nM [^3H]Lysergic acid diethylamide (LSD) for 2 hours at 25° C. Non-specific binding was estimated in the presence of […] Serotonin (5-HT). Receptor proteins were filtered and washed, the filters were then counted to determine [^3H]LSD specifically bound. Compounds were screened at 1 μM or lower, using 1% DMSO as vehicle. Biochemical assay results are presented as the percent inhibition of specific binding in Table 5.

T2 sequence (P25021 whole entry): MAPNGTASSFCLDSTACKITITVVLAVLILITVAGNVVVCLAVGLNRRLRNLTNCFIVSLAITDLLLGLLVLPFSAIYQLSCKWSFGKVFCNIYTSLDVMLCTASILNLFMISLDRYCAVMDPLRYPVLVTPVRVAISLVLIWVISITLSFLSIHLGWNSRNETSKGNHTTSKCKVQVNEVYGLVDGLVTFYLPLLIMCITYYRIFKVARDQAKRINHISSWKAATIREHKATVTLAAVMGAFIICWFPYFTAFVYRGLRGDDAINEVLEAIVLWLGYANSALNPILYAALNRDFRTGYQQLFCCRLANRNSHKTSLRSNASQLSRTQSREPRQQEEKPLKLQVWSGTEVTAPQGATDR
T3 sequence (P14416 whole entry): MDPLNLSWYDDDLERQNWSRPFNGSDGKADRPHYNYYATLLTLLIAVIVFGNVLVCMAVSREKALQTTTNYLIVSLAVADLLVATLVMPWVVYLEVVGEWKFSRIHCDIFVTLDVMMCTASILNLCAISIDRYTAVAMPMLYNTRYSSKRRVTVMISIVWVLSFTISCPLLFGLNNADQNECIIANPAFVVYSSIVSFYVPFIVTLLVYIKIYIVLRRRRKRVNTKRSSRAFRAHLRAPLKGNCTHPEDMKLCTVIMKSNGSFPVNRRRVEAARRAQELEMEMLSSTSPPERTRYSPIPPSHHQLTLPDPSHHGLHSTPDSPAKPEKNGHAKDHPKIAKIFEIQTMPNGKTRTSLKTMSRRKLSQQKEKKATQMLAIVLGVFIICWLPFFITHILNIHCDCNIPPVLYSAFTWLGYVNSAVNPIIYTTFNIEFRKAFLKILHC
T4 sequence (P28223 whole entry): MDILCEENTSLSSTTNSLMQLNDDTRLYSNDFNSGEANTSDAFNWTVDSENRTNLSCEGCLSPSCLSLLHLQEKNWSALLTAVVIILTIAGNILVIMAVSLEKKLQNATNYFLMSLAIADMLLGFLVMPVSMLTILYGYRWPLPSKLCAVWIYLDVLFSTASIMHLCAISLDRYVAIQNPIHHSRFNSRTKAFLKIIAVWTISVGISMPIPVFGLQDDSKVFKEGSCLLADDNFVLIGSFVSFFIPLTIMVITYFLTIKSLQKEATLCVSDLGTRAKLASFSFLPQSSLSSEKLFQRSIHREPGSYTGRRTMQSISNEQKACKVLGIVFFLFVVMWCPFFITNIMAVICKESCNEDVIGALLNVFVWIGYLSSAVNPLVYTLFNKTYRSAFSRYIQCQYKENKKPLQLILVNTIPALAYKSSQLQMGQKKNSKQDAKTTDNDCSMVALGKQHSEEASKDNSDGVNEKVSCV
T7 sequence (P34969 whole entry): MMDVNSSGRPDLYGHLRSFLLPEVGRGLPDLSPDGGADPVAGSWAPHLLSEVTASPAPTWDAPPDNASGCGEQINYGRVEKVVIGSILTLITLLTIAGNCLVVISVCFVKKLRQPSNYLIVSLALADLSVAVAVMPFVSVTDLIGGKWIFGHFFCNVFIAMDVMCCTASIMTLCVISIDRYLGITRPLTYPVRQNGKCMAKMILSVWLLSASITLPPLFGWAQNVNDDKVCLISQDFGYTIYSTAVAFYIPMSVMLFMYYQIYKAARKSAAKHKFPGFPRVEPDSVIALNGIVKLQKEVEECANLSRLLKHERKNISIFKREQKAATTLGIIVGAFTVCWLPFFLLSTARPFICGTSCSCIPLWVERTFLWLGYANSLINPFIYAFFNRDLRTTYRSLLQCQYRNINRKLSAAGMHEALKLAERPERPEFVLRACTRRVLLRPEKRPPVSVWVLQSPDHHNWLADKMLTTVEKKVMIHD
T1 sequence (P35367 whole entry): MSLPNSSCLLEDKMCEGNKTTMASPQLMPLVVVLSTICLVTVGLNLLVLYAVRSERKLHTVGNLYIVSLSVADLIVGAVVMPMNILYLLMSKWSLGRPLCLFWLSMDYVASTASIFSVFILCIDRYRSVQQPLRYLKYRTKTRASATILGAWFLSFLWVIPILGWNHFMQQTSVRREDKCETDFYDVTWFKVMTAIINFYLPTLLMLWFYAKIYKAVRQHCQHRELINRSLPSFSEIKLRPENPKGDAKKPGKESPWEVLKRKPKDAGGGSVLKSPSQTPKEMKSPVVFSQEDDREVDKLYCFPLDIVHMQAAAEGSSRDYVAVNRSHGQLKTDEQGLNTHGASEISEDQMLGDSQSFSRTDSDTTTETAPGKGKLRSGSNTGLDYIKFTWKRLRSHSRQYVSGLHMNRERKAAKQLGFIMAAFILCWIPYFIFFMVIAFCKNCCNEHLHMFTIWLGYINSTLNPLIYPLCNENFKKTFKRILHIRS
T6 sequence (P50406 whole entry): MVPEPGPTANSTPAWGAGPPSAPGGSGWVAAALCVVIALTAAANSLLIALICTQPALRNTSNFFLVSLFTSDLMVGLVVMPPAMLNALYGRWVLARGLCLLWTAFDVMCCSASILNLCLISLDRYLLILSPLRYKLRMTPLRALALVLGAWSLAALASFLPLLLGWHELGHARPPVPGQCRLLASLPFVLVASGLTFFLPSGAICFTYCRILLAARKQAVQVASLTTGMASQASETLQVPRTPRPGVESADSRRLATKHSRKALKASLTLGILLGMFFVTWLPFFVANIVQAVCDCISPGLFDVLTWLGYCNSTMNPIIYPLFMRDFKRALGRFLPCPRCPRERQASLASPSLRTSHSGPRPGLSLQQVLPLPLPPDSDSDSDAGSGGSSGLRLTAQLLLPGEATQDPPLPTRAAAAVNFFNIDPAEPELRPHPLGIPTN

| SMILES | death of brain cells (neurons) [1] | mitochondrial function [2] | number of surviving cells [2] | neurite outgrowth and neurogenesis [3] | inhibition at 1 µM [4] [%] | inhibition at 1 µM [5] [%] | inhibition at 1 µM [6] [%] | inhibition at 1 µM [7] [%] | inhibition at 1 µM [8] [%] | inhibition at 1 µM [9] [%] | inhibition at 1 µM [10] [%] |
| --- | --- | --- | --- | --- | --- | --- | --- | --- | --- | --- | --- |
| Cc1ccc2c(c1)c1c(n2CCc2ccc(C)nc2)CCN(C)C1 [Dimebon, dimebon] | inhibit the death of brain cells (neurons) | improved mitochondrial function | increased the number of surviving cells | promote neurite outgrowth and neurogenesis | – | – | – | – | – | – | – |
| C/C(=C\n1c2c(c3cc(C)ccc31)CCN(C)C2)c1ccc(Cl)c(Cl)c1 [Compound 113, 9-(2-(3,4-dichlorophenyl)prop-1-enyl)-2,6-dimethyl-2,3,4,9-tetrahydro-1H-pyrido[3,4-b]indole] | – | – | – | – | 26 | 81 | 9 | 99 | 91 | 49 | 84 |
